Here are results for eleven compounds from ChEMBL document CHEMBL4382269, “Discovery of Potent, Efficient, and Selective Inhibitors of Phosphoinositide 3-Kinase δ through a Deconstruction and Regrowth Approach” (J Med Chem, 2018).

A word on the IC50: it is the concentration at which inhibition is half-maximal.

Molecules are shown by their SMILES. Where only a bound is given, the exact number is not on record here.

Assay [1] concerns the target Phosphatidylinositol 4,5-bisphosphate 3-kinase catalytic subunit gamma isoform (Homo sapiens, UniProt P48736). As to the kind of experiment: Inhibition of PI3Kgamma (unknown origin) using PIP2 as substrate preincubated for 15 mins followed by substrate addition measured after 60 mins by HTRF method. Background: TR-FRET usually uses a lanthanide donor and a delayed reading to cut background.

The target of assay [2] is Phosphatidylinositol 4,5-bisphosphate 3-kinase catalytic subunit alpha isoform (Homo sapiens, UniProt P42336). As to the kind of experiment: Inhibition of PI3Kalpha (unknown origin) using PIP2 as substrate preincubated for 15 mins followed by substrate addition measured after 60 mins by HTRF method.
The target in assay [3] is Phosphatidylinositol 4,5-bisphosphate 3-kinase catalytic subunit beta isoform (Homo sapiens, UniProt P42338). As to the kind of experiment: Inhibition of PI3Kbeta (unknown origin) using PIP2 as substrate preincubated for 15 mins followed by substrate addition measured after 60 mins by HTRF method.
Assay [4] concerns the target T1, Phosphatidylinositol 4,5-bisphosphate 3-kinase catalytic subunit delta isoform (Homo sapiens, UniProt O00329).
T1 sequence (O00329 whole entry): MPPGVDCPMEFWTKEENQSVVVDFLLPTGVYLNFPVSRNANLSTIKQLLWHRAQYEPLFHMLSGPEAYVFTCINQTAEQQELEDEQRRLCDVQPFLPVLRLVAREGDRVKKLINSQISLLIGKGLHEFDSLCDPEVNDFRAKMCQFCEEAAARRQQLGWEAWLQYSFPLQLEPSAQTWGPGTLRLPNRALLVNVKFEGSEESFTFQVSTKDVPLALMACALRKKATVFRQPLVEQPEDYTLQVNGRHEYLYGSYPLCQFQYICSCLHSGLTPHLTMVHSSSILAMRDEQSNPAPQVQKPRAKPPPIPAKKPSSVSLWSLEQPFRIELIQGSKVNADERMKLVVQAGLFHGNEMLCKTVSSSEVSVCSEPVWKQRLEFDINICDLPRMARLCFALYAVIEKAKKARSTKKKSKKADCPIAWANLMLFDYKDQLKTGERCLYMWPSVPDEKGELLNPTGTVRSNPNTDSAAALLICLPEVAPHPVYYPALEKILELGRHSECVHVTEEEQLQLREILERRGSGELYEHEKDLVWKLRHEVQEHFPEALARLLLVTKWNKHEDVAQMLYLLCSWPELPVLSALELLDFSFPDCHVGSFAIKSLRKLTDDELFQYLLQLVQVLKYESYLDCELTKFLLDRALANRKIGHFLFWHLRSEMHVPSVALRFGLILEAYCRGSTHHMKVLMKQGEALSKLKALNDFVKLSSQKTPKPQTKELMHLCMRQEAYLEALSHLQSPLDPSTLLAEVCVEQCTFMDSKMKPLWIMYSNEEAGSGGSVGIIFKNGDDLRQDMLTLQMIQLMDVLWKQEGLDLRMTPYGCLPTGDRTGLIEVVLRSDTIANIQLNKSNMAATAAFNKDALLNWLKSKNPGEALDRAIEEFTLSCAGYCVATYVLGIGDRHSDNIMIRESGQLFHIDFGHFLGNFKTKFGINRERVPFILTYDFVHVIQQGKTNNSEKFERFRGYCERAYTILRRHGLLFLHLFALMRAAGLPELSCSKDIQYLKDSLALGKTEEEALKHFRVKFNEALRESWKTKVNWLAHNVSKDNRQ
As to the kind of experiment: Inhibition of PI3Kdelta (unknown origin) using PIP2 as substrate preincubated for 15 mins followed by substrate addition measured after 60 mins by HTRF method.

Assay [5] deals with Mitogen-activated protein kinase kinase kinase 5 (Homo sapiens, UniProt Q99683). As to the kind of experiment: Inhibition of ASK1 (unknown origin).
The target in assay [6] is Tyrosine-protein kinase BTK (Homo sapiens, UniProt Q06187). As to the kind of experiment: Inhibition of BTK (unknown origin).
For assay [7], the target named is Tyrosine-protein kinase Lck (Homo sapiens, UniProt P06239). As to the kind of experiment: Inhibition of LCK (unknown origin).
Assay [8] has as its target Mitogen-activated protein kinase 10 (Homo sapiens, UniProt P53779). Put plainly: Inhibition of JNK3 (unknown origin).
The target in assay [9] is Glycogen synthase kinase-3 beta (Homo sapiens, UniProt P49841). As to the kind of experiment: Inhibition of GSK3B (unknown origin).
The target in another assay is Aurora kinase B (Homo sapiens, UniProt Q96GD4). As to the kind of experiment: Inhibition of Aurora B (unknown origin).
Assay [10] deals with Tyrosine-protein kinase JAK2 (Homo sapiens, UniProt O60674). Put plainly: Inhibition of JAK2 (unknown origin).
For assay [11], the target named is Epidermal growth factor receptor (Homo sapiens, UniProt P00533). Put plainly: Inhibition of EGFR (unknown origin).
For assay [12], the target named is Mitogen-activated protein kinase 14 (Homo sapiens, UniProt Q16539). Put plainly: Inhibition of p38alpha (unknown origin).
The target in assay [13] is Tyrosine-protein kinase SYK (Homo sapiens, UniProt P43405). Put plainly: Inhibition of SYK (unknown origin).
For assay [14], the target named is Inhibitor of nuclear factor kappa-B kinase subunit beta (Homo sapiens, UniProt O14920). Put plainly: Inhibition of IKK2 (unknown origin).
The target of assay [15] is Rho-associated protein kinase 1 (Homo sapiens, UniProt Q13464). Put plainly: Inhibition of ROCK1 (unknown origin).
In assay [16] the target is Tyrosine-protein kinase JAK3 (Homo sapiens, UniProt P52333). As to the kind of experiment: Inhibition of JAK3 (unknown origin).
In assay [17] the target is Leucine-rich repeat serine/threonine-protein kinase 2 (Homo sapiens, UniProt Q5S007). As to the kind of experiment: Inhibition of LRRK2 (unknown origin).
In assay [18] the target is Inhibitor of nuclear factor kappa-B kinase subunit alpha (Homo sapiens, UniProt O15111). Put plainly: Inhibition of IKK1 (unknown origin).
The target in assay [19] is Tyrosine-protein kinase ITK/TSK (Homo sapiens, UniProt Q08881). As to the kind of experiment: Inhibition of ITK (unknown origin).

Phosphatidylinositol 4,5-bisphosphate 3-kinase catalytic subunit alpha isoform, sequence (P42336 whole entry, canonical isoform): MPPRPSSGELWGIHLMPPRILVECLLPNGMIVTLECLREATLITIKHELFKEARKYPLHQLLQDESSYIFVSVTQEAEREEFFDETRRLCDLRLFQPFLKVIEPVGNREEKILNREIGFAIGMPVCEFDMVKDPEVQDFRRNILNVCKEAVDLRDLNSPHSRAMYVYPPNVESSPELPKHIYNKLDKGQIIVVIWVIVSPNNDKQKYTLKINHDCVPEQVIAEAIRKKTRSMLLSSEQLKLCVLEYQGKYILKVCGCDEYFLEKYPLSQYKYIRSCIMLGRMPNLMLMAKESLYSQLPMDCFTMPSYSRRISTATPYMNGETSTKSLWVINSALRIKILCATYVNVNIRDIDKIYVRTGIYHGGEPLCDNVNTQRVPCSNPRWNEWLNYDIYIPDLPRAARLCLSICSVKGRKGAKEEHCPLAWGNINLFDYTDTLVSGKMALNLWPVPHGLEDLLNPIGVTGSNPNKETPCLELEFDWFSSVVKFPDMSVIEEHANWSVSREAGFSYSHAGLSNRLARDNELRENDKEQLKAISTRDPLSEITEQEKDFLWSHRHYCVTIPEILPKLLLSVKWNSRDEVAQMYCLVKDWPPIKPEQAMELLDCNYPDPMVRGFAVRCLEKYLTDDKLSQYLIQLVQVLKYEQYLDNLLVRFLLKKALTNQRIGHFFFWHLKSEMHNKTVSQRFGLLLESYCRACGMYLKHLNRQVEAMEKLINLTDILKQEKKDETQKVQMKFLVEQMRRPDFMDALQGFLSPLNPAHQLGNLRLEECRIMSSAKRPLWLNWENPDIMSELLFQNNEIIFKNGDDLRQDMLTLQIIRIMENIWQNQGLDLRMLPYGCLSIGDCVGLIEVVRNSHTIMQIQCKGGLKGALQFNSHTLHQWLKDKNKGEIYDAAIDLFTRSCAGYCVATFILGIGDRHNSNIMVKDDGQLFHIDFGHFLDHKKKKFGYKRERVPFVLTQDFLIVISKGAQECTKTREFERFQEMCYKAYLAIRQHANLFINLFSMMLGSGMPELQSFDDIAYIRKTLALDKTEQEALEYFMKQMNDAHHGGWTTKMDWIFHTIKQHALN
Phosphatidylinositol 4,5-bisphosphate 3-kinase catalytic subunit beta isoform, sequence (P42338 whole entry, canonical isoform): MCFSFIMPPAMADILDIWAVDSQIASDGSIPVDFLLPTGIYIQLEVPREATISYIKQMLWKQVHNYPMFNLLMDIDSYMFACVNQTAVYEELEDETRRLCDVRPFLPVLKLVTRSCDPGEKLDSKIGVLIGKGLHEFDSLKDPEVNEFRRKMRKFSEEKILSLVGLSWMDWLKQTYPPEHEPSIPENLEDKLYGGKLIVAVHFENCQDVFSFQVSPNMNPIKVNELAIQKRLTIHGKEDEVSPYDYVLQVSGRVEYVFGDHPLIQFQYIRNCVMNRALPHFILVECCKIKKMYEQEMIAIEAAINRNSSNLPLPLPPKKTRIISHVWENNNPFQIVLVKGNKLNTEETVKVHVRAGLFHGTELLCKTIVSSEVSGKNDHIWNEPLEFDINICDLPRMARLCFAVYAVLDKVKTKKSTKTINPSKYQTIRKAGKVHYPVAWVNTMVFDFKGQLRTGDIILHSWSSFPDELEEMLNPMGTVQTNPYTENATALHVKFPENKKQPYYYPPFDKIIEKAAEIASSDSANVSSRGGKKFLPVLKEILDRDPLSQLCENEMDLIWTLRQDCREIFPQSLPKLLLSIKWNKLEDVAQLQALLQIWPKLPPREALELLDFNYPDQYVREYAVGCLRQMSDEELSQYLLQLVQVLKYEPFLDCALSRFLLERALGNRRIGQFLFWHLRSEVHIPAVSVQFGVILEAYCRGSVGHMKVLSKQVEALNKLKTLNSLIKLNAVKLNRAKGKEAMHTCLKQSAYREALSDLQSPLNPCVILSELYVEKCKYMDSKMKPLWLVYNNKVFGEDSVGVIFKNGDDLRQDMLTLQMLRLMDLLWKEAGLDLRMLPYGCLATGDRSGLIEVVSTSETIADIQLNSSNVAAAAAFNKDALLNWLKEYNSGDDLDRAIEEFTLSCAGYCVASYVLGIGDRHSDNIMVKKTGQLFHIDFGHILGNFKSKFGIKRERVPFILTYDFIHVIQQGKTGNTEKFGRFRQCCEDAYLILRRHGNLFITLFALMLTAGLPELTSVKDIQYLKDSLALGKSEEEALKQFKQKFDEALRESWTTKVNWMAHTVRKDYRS
Phosphatidylinositol 4,5-bisphosphate 3-kinase catalytic subunit gamma isoform, sequence (P48736 whole entry, canonical isoform): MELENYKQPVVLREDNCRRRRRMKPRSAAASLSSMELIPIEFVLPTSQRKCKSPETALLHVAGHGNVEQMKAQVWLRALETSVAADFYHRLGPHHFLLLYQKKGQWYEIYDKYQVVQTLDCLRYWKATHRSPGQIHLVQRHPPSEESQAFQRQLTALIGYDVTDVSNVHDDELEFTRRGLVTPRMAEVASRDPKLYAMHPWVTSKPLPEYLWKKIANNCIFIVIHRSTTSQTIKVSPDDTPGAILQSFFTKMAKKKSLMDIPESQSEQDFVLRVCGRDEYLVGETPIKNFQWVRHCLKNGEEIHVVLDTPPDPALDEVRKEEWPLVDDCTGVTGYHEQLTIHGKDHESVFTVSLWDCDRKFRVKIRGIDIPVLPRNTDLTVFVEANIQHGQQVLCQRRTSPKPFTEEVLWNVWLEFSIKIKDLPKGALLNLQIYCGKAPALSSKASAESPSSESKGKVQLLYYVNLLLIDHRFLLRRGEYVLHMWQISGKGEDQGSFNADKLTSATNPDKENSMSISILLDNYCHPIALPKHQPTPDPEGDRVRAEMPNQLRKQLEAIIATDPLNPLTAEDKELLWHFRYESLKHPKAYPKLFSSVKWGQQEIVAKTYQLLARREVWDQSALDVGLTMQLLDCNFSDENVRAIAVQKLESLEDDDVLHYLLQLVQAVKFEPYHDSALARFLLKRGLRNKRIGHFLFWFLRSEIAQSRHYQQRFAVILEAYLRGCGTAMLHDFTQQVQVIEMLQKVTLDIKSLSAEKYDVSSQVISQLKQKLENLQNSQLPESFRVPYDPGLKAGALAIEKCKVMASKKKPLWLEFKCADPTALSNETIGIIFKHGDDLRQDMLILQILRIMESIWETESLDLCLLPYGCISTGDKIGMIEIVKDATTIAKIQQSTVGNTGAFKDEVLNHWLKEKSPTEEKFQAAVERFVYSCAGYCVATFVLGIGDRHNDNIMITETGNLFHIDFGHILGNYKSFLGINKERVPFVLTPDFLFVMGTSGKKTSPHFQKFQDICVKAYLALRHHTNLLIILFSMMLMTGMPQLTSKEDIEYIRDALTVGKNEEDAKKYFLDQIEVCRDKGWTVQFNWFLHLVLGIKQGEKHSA
Tyrosine-protein kinase Lck, sequence (P06239 whole entry): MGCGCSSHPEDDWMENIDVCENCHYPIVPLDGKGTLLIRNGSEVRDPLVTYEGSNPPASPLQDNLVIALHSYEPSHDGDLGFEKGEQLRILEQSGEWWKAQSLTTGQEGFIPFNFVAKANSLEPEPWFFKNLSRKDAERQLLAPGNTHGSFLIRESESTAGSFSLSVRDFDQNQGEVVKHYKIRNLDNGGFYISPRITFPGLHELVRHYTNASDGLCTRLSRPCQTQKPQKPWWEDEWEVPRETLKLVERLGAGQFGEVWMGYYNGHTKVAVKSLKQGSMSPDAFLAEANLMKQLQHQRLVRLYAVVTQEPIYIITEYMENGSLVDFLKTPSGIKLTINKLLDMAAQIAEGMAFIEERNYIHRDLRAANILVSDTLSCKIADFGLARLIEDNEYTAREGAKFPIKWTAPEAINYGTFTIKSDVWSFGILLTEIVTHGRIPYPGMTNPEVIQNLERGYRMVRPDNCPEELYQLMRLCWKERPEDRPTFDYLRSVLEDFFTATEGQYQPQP
Inhibitor of nuclear factor kappa-B kinase subunit beta, sequence (O14920 whole entry): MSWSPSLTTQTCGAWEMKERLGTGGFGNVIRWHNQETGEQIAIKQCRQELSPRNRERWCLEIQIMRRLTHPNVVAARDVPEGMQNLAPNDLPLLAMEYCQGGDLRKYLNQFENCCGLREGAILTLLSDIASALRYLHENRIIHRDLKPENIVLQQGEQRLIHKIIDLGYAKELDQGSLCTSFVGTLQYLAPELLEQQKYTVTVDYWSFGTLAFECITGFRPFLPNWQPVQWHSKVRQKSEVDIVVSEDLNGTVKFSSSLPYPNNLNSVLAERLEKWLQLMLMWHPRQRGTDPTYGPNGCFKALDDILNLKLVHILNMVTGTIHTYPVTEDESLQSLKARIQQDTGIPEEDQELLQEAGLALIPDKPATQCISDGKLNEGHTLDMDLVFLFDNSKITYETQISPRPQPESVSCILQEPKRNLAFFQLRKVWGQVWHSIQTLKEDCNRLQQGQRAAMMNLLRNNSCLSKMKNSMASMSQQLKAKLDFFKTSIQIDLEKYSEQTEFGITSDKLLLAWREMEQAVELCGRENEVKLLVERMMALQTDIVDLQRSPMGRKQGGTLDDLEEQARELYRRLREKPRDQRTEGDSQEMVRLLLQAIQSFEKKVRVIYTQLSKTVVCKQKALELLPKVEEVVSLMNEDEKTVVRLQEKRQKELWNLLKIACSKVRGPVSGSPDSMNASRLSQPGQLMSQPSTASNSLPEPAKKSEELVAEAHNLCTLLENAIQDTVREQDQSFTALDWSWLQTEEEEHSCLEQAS
Mitogen-activated protein kinase 14, sequence (Q16539 whole entry): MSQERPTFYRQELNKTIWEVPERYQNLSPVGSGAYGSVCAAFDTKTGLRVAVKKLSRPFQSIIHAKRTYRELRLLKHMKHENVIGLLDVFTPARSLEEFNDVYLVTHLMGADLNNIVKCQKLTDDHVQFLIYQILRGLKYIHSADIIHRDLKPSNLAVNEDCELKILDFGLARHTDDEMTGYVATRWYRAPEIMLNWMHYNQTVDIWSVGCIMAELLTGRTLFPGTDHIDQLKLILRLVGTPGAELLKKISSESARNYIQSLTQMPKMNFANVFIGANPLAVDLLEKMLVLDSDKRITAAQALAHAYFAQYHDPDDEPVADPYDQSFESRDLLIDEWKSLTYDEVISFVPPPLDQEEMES

As for `c1cc(-c2ccc3cn[nH]c3c2)c2cc[nH]c2c1`, the IC50 is greater than 158 µM in [1], greater than 158 µM in [2], 25.1 µM in [3] and 7.94 µM in assay [4].
Take `c1cc(-c2ccncc2)c2cc[nH]c2c1`: the IC50 in assay [1] is greater than 50.1 µM; in [2], greater than 50.1 µM; in assay [3], greater than 50.1 µM; in [4], 79.4 µM.
With `CS(=O)(=O)Nc1cc(-c2ccc3cn[nH]c3c2)cnc1Cl`, the IC50 in assay [1] was 2.51 µM; in assay [2], 6.31 µM; in assay [3] it was 3.98 µM; in assay [4] it was 0.398 µM.
Regarding `CS(=O)(=O)Nc1cc(-c2ccncc2)cnc1Cl`, the IC50 (in [5]; in assay [6]; in assay [7]; in [8]; in assay [9]; at Aurora kinase B) was greater than 10 µM in each case. Also, the IC50 in assay [10], in assay [11], in assay [12], in assay [13], in assay [14] and in [15] was greater than 10 µM throughout. Further, the IC50 in assay [16] was greater than 10 µM; in [17] it was greater than 10 µM; in assay [1] it was 3.98 µM; in assay [18] it was greater than 10 µM; in assay [2], 6.31 µM; in assay [3], 0.794 µM. Moreover, the IC50 in assay [19] is greater than 10 µM; in assay [4] it was 0.251 µM.
With `O=S(=O)(Nc1cc(C2=CCOCC2)cnc1Cl)c1ccccc1`, the IC50 in [1] was 0.501 µM; in assay [2], 0.501 µM; in [3] it was 0.126 µM; in assay [4] it was 0.01 µM.
For the compound `CS(=O)(=O)Nc1cc(-c2cnc(N)nc2)cnc1Cl`, the IC50 in [1] is 0.2 µM; in assay [2], 1.58 µM; in [3], 0.158 µM; in assay [4] it was 0.126 µM.
For `c1cc(-c2nnc(CN3CCOCC3)o2)c2cn[nH]c2c1` the same measures were 25.1 µM, greater than 50.1 µM, greater than 50.1 µM and 158 µM.
Taken in the same sequence, the figures for `c1cc(-c2ccc3ccncc3c2)c2cc[nH]c2c1` were 15.8 µM, greater than 31.6 µM, 15.8 µM and 3.98 µM.
Taken in the same sequence, the figures for `CS(=O)(=O)Nc1cc(-c2ccc3ccncc3c2)cnc1Cl` were 0.794 µM, 2.51 µM, 2.51 µM and 0.158 µM.
With `O=S(=O)(Nc1cc(-c2ccccc2)cnc1Cl)c1ccccc1`, the IC50 was 12.6 µM in [1], 31.6 µM in assay [2], 15.8 µM in assay [3] and 1 µM in [4].
As to `COc1ncc(-c2cc(-c3ncc(CN4C[C@@H](C)O[C@@H](C)C4)o3)c3cn[nH]c3c2)cc1NS(C)(=O)=O`, the results for the IC50 in [1], in assay [2] and in assay [3] were 0.316 µM, 0.398 µM and 2.51 µM, respectively.
